Assay results as given in patent US8993483B2, “Combination of active substances with insecticidal properties” (Bayer Intellectual Property GmbH, priority 2003, dated 2015).

Assays:
[1] = tested on: caterpillars of the cotton boll worm (Heliothis armigera); test: Heliothis armigera test (cabbage leaf dip, kill rate); assay type: in vivo; conditions: single active compound
Excerpt: (§1) The expected action for a given combination of two active compounds can be calculated as follows, according to S. R. Colby, Weeds 15 (1967), 20-22:
(§2) • X is the kill rate, expressed as a percentage of the untreated control, when employing active compound A at an application rate of m g/ha or in a concentration of m ppm, • Y is the kill rate, expressed as a percentage of the untreated control, when employing active compound B at an application rate of n g/ha or in a concentration of n ppm and • E is the kill rate, expressed as a percentage of the untreated control, when employing active compounds A and B at application rates of m and n g/ha or in a concentration of m and n ppm, then
(§3) If the actual insecticidal kill rate exceeds the calculated value, the action of the combination is superadditive, i.e. a synergistic effect is present. In this case, the actually observed kill rate must exceed the value calculated using the above formula for the expected kill rate (E).
(§4) To produce a suitable preparation of active compound, 1 part by weight of active compound is mixed with the stated amounts of solvent and emulsifier, and the concentrate is diluted with emulsifier-containing water to the desired concentration.
Cabbage leaves (Brassica oleracea) are treated by being dipped into the preparation of active compound of the desired concentration and are populated with caterpillars of the cotton boll worm (Heliothis armigera) while the leaves are still moist.
(§5) After the desired period of time, the kill in % is determined. 100% means that all caterpillars have been killed; 0% means that none of the caterpillars have been killed. The kill rates determined are calculated using Colby's formula (see page 43).

[2] = tested on: green peach aphid (Myzus persicae); test: Myzus persicae test (infested cabbage leaf dip, kill rate); assay type: in vivo; conditions: single active compound, 0.8 ppm
Excerpt: as §1, §2, §3
(§6) To produce a suitable preparation of active compound, 1 part by weight of active compound is mixed with the stated amounts of solvent and emulsifier, and the concentrate is diluted with emulsifier-containing water to the desired concentration. […]
(§7) After the desired period of time, the kill in % is determined. […] The kill rates determined are calculated using Colby's formula (see page 43).

[3] = tested on: larvae of the mustard beetle (Phaedon cochleariae); test: Phaedon cochleariae larvae test (cabbage leaf dip, kill rate); assay type: in vivo; conditions: single active compound
Excerpt: as §1, §2, §3
Phaedon cochleariae Larvae Test
as §6, §7

[4] = tested on: caterpillars of the diamond back moth (Plutella xylostella, normally sensitive strain); test: Plutella xylostella test (normally sensitive strain; cabbage leaf dip, kill rate); assay type: in vivo; conditions: single active compound
Excerpt: as §1, §2, §3
Plutella xylostella Test (Normally Sensitive Strain)
as §4
Cabbage leaves (Brassica oleracea) are treated by being dipped into the preparation of active compound of the desired concentration and are populated with larvae of caterpillars of the diamond back moth (Plutella xylostella, normally sensitive strain) while the leaves are still moist.
After the desired period of time, the kill in % is determined. 100% means that all caterpillars have been killed; 0% means that none of the caterpillars have been killed. The kill rates determined are calculated using Colby's formula (see sheet 1).

[5] = tested on: caterpillars of the armyworm (Spodoptera frugiperda); test: Spodoptera frugiperda test (cabbage leaf dip, kill rate); assay type: in vivo; conditions: single active compound
Excerpt: as §1, §2, §3
Spodoptera frugiperda Test
as §4
Cabbage leaves (Brassica oleracea) are treated by being dipped into the preparation of active compound of the desired concentration and are populated with caterpillars of the armyworm (Spodoptera frugiperda) while the leaves are still moist.
as §5

melting point | Compound | Kill rate in % after 6 d, found ([1]; 4 ppm) | Kill rate in % after 6 d, found ([4]; 4 ppm) | also measured
196 to 197 °C | CCNC(=O)c1cc(Br)cc(Br)c1NC(=O)c1cc(Br)nn1-c1ncccc1Cl | – | – | –
192 to 193 °C | CC(C)NC(=O)c1cc(Br)cc(Br)c1NC(=O)c1cc(C(F)(F)F)nn1-c1ncccc1Cl | – | – | –
172 to 173 °C | CC(C)(C)NC(=O)c1cc(Cl)cc(Cl)c1NC(=O)c1cc(Cl)nn1-c1ncccc1Cl | – | – | –

More lines, now with the values behind:

Compound | melting point | Kill rate in % after 6 d, found ([1]; 4 ppm) | Kill rate in % after 6 d, found ([4]; 4 ppm) | also measured
Cc1cc(Cl)cc(C(=O)NC(C)C)c1NC(=O)c1cc(C(F)(F)F)nn1-c1ncccc1Cl [II-1-9] | – | – | – | Kill rate in % after 6 d, found ([1]; 0.0064 ppm): 0%; Kill rate in % after 6 d, found [2]: 0%; Kill rate in % after 6 d, found ([3]; 0.0064 ppm): 0%; Kill rate in % after 6 d, found ([4]; 0.0064 ppm): 20%; Kill rate in % after 6 d, found ([5]; 0.0064 ppm): 0%
CN/C(=N\[N+](=O)[O-])NCc1cnc(Cl)s1 [Im, clothianidin] | – | 40% | 0% | Kill rate in % after 6 d, found [2]: 30%
O=[N+]([O-])/N=C1\NCCN1Cc1ccc(Cl)nc1 [Ia, imidacloprid] | – | 0% | 0% | Kill rate in % after 6 d, found ([3]; 4 ppm): 20%; Kill rate in % after 6 d, found ([5]; 4 ppm): 0%
Cc1cc(I)cc(C(=O)NC(C)C)c1NC(=O)c1cc(Cl)nn1-c1ncccc1Cl | 189 to 190 °C | – | – | –
CN(C)C(=O)c1cc(Cl)cc(Cl)c1NC(=O)c1cc(Br)nn1-c1ncccc1Cl | 216 to 218 °C | – | – | –
N#C/N=C1\SCCN1Cc1ccc(Cl)nc1 [Ik, thiacloprid] | – | 25% | 0% | Kill rate in % after 6 d, found ([5]; 4 ppm): 0%
CC(C)(C)NC(=O)c1cc(Br)cc(Br)c1NC(=O)c1cc(Cl)nn1-c1ncccc1Cl | 210 to 212 °C | – | – | –
